Laboratory results reported in patent publication US20240216412A1, “OXIDIZED NICOTINAMIDE ADENINE DINUCLEOTIDE (NAD+) PRECURSOR TREATMENT FOR HEART FAILURE ALLEVIATION INDEPENDENT OF MITOCHONDRIAL PROTEIN DEACETYLATION” (University of Washington, priority 2022, published 2024).

Tests used:
Assay type in all cases: in vivo, mouse
Mrpp2 = Mrpp2 dehydrogenase activity in heart homogenates; conditions: NR treated failing (TAC) hearts, matching sham operated controls
Protocol: Enzyme Activities. Citrate synthase (CS), Complex I (CI) and Cytochrome C Oxidase (CIV), and Mrpp2 dehydrogenase activities were determined in heart tissue homogenates at 30° C. using a protocol adapted from previously published methods (Spinazzi et al., 2012). Briefly, for CS activity frozen cardiac tissue (25 mg) was homogenized at 4° C. in CelLytic™ MT Cell Lysis Reagent (C3228) and then incubated on ice for 30 minutes. The samples were then centrifuged at 10,000×g for 10 minutes at 4° C. and protein concentration determined. CS activity was analyzed in 100 mM Tris buffer containing 0.1% Triton X-100, pH 8.0 as previously described (Spinazzi et al., 2012). […] CIV activity was analyzed in 100 mM potassium phosphate buffer as previously described (Spinazzi et al., 2012). […] Cl activity was analyzed in 100 mM potassium phosphate buffer as previously described (Spinazzi et al., 2012). In parallel, a separate reactions containing the same quantity of reagents and sample but with the addition of 10 μl of 1 mM rotenone solution. The reactions were started by adding 6 μl of ubiquinone (10 mM), mix and follow the decrease of absorbance at 340 nm for 2 min. The dehydrogenase activity of Mrpp2 was measured as described (Falk et al., 2016) in the reverse direction for reduction of acetoacetyl-CoA (30 mM) to L-3-hydroxyacyl-CoA. The reaction was monitored as the decrease of absorbance at 340 nm.

[1] = tested on: WT TAC heart transcriptome; assay: RNA sequencing with GSEA of TAC hearts; conditions: NR treated TAC hearts vs vehicle
Protocol: RNA Sequencing. Total RNA was extracted from 30 mg of heart tissue using the Qiagen RNeasy kit. RNA Sequencing and quality control was performed BGI (BGISEQ-500). Data Analysis-RNAseq samples were aligned using Tophat (Trapnell et al., 2009) (version 2.0.13). Genelevel read counts were quantified using htseq-count (Anders et al., 2015). Genes expressed above 4TPM in at least 2 samples were used. In differential expression (DESeq), A gene to have total normalized reads above 10 across all samples. DeSeq (Anders and Huber, 2010) was used for differential gene expression analysis. Genes with fold change >1.5 and FDR <0.1 were considered differentially expressed. GSEA was performed using Broad Institute software against the Reactome database. Iregulon v1.3 was used to predict transcription factor binding motif. The following options were used: Motif collection 10 K (9713 PWMs), putative regulatory region 20 kb centered around TSS (7 species). Program default settings for Recovery and Transcription factor prediction options were selected for the analysis.

[2] = tested on: isoproterenol (ISO) induced heart failure in WT and Sirt3Ko mice; assay: Isoproterenol (ISO) minipump induced heart failure, echocardiography and HW/TL; conditions: 14 days of ISO, NR 500 mg/kg body weight IP daily
Protocol: Minipump implantation. Pathologic hypertrophy was induced by treating male (3-4 months old) Sirt3ko and WT mice with isoproterenol (ISO) or vehicle for 14 days. Mice with and without GW6471(4.5 mg/kg/day) were treated with NR (500 mg/kg body weight IP daily) or vehicle starting at day one after mini-pump insertion. Briefly, an incision was made in the skin between the shoulder blades. A deep subcutaneous pocket was made caudal to the incision using blunt dissection. The sterile minipump (Alzet #2002) was inserted into the pocket, and the incision was closed with wound clips. Isoproterenol (30 mg/kg/day) was delivered by osmotic minipump for 14 days. Minipumps carrying saline were used as a control.
Transthoracic Echocardiography. Echocardiography of hearts was performed at indicated time after surgery using the VEVO 2100 high-frequency, high-resolution digital imaging system (VisualSonics) equipped with a MS400 Microscan Transducer on anesthetized mice (0.5%-2% isoflurane in 95% oxygen). Measurements were made when heart rate was >450 bpm. Cardiac function and geometry measurements were measured in parasternal short axis view. M-mode images were used for analysis and calculated by the average of at least three cardiac cycles and carried out in a blind fashion. Hearts were harvested at 12-week post-surgery for subsequent experiments and biochemical assays.
Organ weight and histological assessment. Hearts from mice were harvested, rinsed briefly in 1×PBS, blotted dry, and weighed. Lungs from the same mice were harvested, weighed, then dried at 56 C. After 72 hours the lungs were weighed again. Heart weight (HW) and Lung weight (LW) was normalized to tibia length (TL) to assess changes in hypertrophic growth and lung edema, respectively. For histology, hearts were perfusion fixed with 10% neutral buffered formalin. Longitudinal sections of hearts were stained with Masson's Trichrome for assessment of fibrosis by the University of Washington Histology and Imaging Core.

[3] = tested on: Complex I, Cytochrome C Oxidase, Citrate synthase; assay: Electron transport chain enzyme activities in heart homogenates; conditions: TAC hearts, Sirt3Ko and WT heart lysate
Protocol: Enzyme Activities. Citrate synthase (CS), Complex I (CI) and Cytochrome C Oxidase (CIV), and Mrpp2 dehydrogenase activities were determined in heart tissue homogenates at 30° C. using a protocol adapted from previously published methods (Spinazzi et al., 2012). Briefly, for CS activity frozen cardiac tissue (25 mg) was homogenized at 4° C. in CelLytic™ MT Cell Lysis Reagent (C3228) and then incubated on ice for 30 minutes. The samples were then centrifuged at 10,000×g for 10 minutes at 4° C. and protein concentration determined. CS activity was analyzed in 100 mM Tris buffer containing 0.1% Triton X-100, pH 8.0 as previously described (Spinazzi et al., 2012). For CIV activity, 25 mg of cardiac tissue was homogenized at 4° C. in 50 mM potassium phosphate buffer containing 1 mM EDTA, and 0.1% Triton X-100 (pH 7.4; final concentration, 5 mg tissue/mL). The samples were incubated on ice for 30 minutes followed by centrifugation at 10,000×g for 10 minutes at 4° C. CIV activity was analyzed in 100 mM potassium phosphate buffer as previously described (Spinazzi et al., 2012). For Cl activity, 25 mg of cardiac tissue was homogenized at 4° C. in 50 mM potassium phosphate buffer containing 1 mM EDTA, and 0.1% Triton X-100 (pH 7.4; final concentration, 5 mg tissue/mL). The samples were incubated on ice for 30 minutes followed by centrifugation at 10,000×g for 10 minutes at 4° C. Cl activity was analyzed in 100 mM potassium phosphate buffer as previously described (Spinazzi et al., 2012). In parallel, a separate reactions containing the same quantity of reagents and sample but with the addition of 10 μl of 1 mM rotenone solution. The reactions were started by adding 6 μl of ubiquinone (10 mM), mix and follow the decrease of absorbance at 340 nm for 2 min. The dehydrogenase activity of Mrpp2 was measured as described (Falk et al., 2016) in the reverse direction for reduction of acetoacetyl-CoA (30 mM) to L-3-hydroxyacyl-CoA. The reaction was monitored as the decrease of absorbance at 340 nm.

Compound: NC(=O)c1ccc[n+]([C@@H]2O[C@H](CO)[C@@H](O)[C@H]2O)c1 [NR, Nicotinamide riboside chloride]
- Increase in Mrpp2 dehydrogenase activity (Mrpp2): ~2 fold
- Pathways of genes significantly downregulated (GSEA) [1]: enriched in pathways relating to collagen formation and extracellular matrix organization
- Pathways of genes significantly upregulated (GSEA) [1]: enriched in pathways relating to mitochondrial metabolism
- Cardiac hypertrophy [2]: partially reduced
- FS % [2]: increased
- Activity of citrate synthase [3]: no change
- Activity of complex I [3]: restored
- Activity of cytochrome c oxidase (COIV) [3]: restored
